Patent publication EP0170258A2, “11-Substituted-16-phenoxy and 16-substituted phenoxy-prostatrienoic acid derivatives” (priority 1984, dated 1986)
Values belong to the compound of their own block, whether it stands above or below them.

Key:
[1] = test system: Normal White Albino New Zealand Rabbits; assay: Reduction of intraocular pressure (IOP), pneuma-tonometer; details: rabbit, in vivo
[2] = test system: Normal White Albino New Zealand Rabbits; assay: as above; format: in vivo
Protocol: Two groups of normal albino white New Zealand rabbits were used for this study. Control group: 4 animals Experimental group: 8 animals At time 0, intraocular pressure of both eyes of each animal in control and experimental groups was determined. All animals received the treatment either with saline (control group) or the tested compound (experimental group) immediately after 0 hour intraocular pressure reading. Control group received 50 µl of vehicle in both eyes . Experimental animals received 50 µl of vehicle in the left eyes and 50 µl of the test solution in the right eyes. Intraocular pressure was measured at 30 minutes, 1, 2, and 4 hours. The effects of tested drug on intraocular pressure of the rabbit was determined using a Digilab Model 30D pneuma-tonometer. Initial IOP readings were obtained in all animals after the administration of 50 ul of 0.5% Opthaine (proparacaine hydrochloride). A group of 4 rabbits served as controls and were treated with 50 µl of saline in both eyes. Eight additional rabbits received 50 ul of test drug in the right eye, and 50 µl of drug vehicle was administered in the contralateral left eye. IOP readings were made 30 minutes, 1 hours, 2 hours, and 4 hours after drug administration. […] This procedure permitted the comparison of drug treated eye with the contralateral vehicle treated eye, and also with saline treated eye. For purposes of statistical analysis comparisons were made between the drug treated IOP values and vehicle treated-contralateral eyes and also the saline treated IOP values.

Monkeys = assay: Toxicity by topical ocular application in monkeys; format: in vivo; details: same concentrations and dosages, once a day for one week
Protocol: Monkeys were treated similarly with the same concentrations and dosages of methyl 9-oxo-lla- methyl-15a-hydroxy-16-phenoxy-17,18,19,20-tetranorprosta-4,5,13(E)-trienoate once a day for one week.

rabbits = assay: Toxicity by topical ocular application in rabbits; format: in vivo; details: up to 0.2 mg/ml, 0.1 ml/eye, from 12 times in 6 hours to up to 6 times/day for a week
Protocol: Studies were conducted by topical ocular application in rabbits with concentrations up to 0.2 mg/ml of methyl 9-oxo-lla-methyl-15a-hydroxy-16-phenoxy-17,18,19,20-tetranorprosta-4,5,13(E)-trienoate. The dose volume was 0.1 ml/eye. Duration of administration varied from 12 times in 6 hours to up to 6 times/day for a week.

- transient increase in intraocular pressure at the time of administration ([2]; rabbit, in vivo): transitory rise in intraocular pressure
Structure (SMILES): CCCCC[C@H](O)/C=C/[C@H]1[C@H](O)CC(=O)[C@@H]1CCCCCCC(=O)O [PGE1]
- eye irritation [1]: severe eye irritation
- Intraocular pressure ([2]; PGE1 0.01%, 0 hr (reading before treatment)): 20.67 ± 1.09 mmHg
- Intraocular pressure ([2]; PGE1 0.01%, 1/2 hr): 38.17 ± 1.28 mmHg
- Intraocular pressure ([2]; PGE1 0.01%, 1 hr): 31.17 ± .91 mmHg
- Intraocular pressure ([2]; PGE1 0.01%, 2 hr): 15.33 ± .56 mmHg
- Intraocular pressure ([2]; PGE1 0.01%, 4 hr): 16.33 ± 1.17 mmHg
- Intraocular pressure ([2]; PGE1 0.01%, 6 hr): 19.00 ± 1.03 mmHg

- transient increase in intraocular pressure at the time of administration ([2]; when first administered): transitory rise in intraocular pressure
Structure (SMILES): CCCCC[C@H](O)/C=C/[C@H]1[C@H](O)CC(=O)[C@@H]1C/C=C\CCCC(=O)O [PGE2]
- Intraocular pressure ([2]; PGE2 0.025%, 0 hr (reading before treatment)): 21.00 ± .85 mmHg
- Intraocular pressure ([2]; PGE2 0.025%, 1/2 hr): 47.63 ± 1.28 mmHg
- Intraocular pressure ([2]; PGE2 0.025%, 2.5 hr): 18.38 ± .82 mmHg
- Intraocular pressure ([2]; PGE2 0.025%, 4 hr): 16.00 ± .73 mmHg
- Intraocular pressure ([2]; PGE2 0.025%, 5 hr): 16.63 ± .38 mmHg
- eye irritation ([2]; observed on administration, for PGE1 and PGE2 even at low doses): severe eye irritation

Structure (SMILES): COC(=O)CCC=C=CC[C@H]1C(=O)C[C@@H](C)[C@@H]1/C=C/[C@@H](O)COc1ccccc1 [Compound 1, methyl 9-oxo-11α-methyl-15α-hydroxy-16-phenoxy-17,18,19,20-tetranorprosta-4,5,13(E)-trienoate]
- ocular toxicity (Monkeys): No ocular toxicity occurred
- intraocular pressure (effect in words) ([2]; 0.01% solution, right (treated) eyes of the experimental group): decreased significantly
- Intraocular pressure ([2]; Compound 1 0.02%, 0 hr (reading before treatment)): 21.63 ± .71 mmHg
- Intraocular pressure ([2]; Compound 1 0.02%, 1/2 hr): 18.13 ± .44 mmHg
- Intraocular pressure ([2]; Compound 1 0.02%, 1 hr): 17.25 ± .59 mmHg
- Intraocular pressure ([2]; Compound 1 0.02%, 2 hr): 16.63 ± .78 mmHg
- Intraocular pressure ([2]; Compound 1 0.02%, 4 hr): 18.75 ± .68 mmHg
- Intraocular pressure ([2]; Compound 1 0.2%, 0 hr (reading before treatment)): 23.75 ± .53 mmHg
- Intraocular pressure ([2]; Compound 1 0.2%, 1/2 hr): 19.25 ± .49 mmHg
- Intraocular pressure ([2]; Compound 1 0.2%, 1 hr): 18.88 ± .64 mmHg
- Intraocular pressure ([2]; Compound 1 0.2%, 2 hr): 18.75 ± .45 mmHg
- Intraocular pressure ([2]; Compound 1 0.2%, 4 hr): 19.88 ± .35 mmHg
- ocular toxicity (rabbits): No ocular toxicity occurred
